Measurements as given in article PMC6891756, “Synthesis and Biological Evaluation of Novel Aminochalcones as Potential Anticancer and Antimicrobial Agents” (Molecules, 2019).
Values after ≈ are worked out from the molar mass of the structure shown.

Key:
Trichophyton rubrum = system: Trichophyton rubrum; design: method as in doi:10.1007/s10600-018-2281-7; details: cited from earlier work
[1] = system: canine malignant histiocytic cell line (DH82); design: method as in PMID 28738308; details: read-out: IC50 DH82 proliferation (literature); cited from earlier work
HT-29 = experiment: SRB antiproliferative assay, HT-29; type: cell-based, human; details: Homo sapiens, HT-29; SRB, 48 h, 1–100 µg·mL^−1; ND = not detected in the tested concentration range
Method: (§1) Anticancer activity was evaluated using the sulforhodamine B assay (SRB) on four different human colon cancer cell lines: HT-29, LS180, LoVo and LoVo/DX and green monkey kidney fibroblasts COS7 (ATCC, Manassas, VA, USA). Cell lines HT-29 and COS7 were cultured in α-MEM medium (IIET PAS, Wrocław, Poland), LS180 in OptiMEM medium (IIET PAS), LoVo and LoVo/DX in mixture of α-MEM and OptiMEM medium (1:1 (v:v)). Each culture medium was supplemented with 10% fetal bovine serum, 2 mM glutamine, 100 μg·mL^−1 penicillin, 100 μg·mL^−1 streptomycin and 0.25 μg·mL^−1 amphotericin (all supplements purchased from Gibco (Paisley, UK). Cells were incubated at 37 °C, 5% CO2 in HeraCELL 150i incubator (Thermo Fisher Scientific, Waltham, MA, USA).
(§2) For the SRB assay, cells were seeded onto 96-well plates (Sarstedt, Nümbrecht, Germany) at a density of 5·10^3/well and cultured overnight as described above. Then, the growth medium was gently removed and replaced with fresh medium, supplemented with aminochalcone derivatives in the concentration ranging from 1 µg·mL^−1 to 100 µg·mL^−1. All stock solutions were prepared in DMSO at a concentration of 10 mg·mL^−1. Cells were incubated for 48 h and then the SRB assay was performed as described previously. Each experiment was performed in quadruplicate. The final results were reported as the IC50 values calculated for three independent experiments. Cisplatin (Acros Organics, Waltham, MA, USA) and doxorubicin (Fisher BioReagents, Waltham, MA, USA) were used as positive controls of the test.

LS180 = experiment: SRB antiproliferative assay, LS180; type: cell-based, human; details: Homo sapiens, LS180, 48 h, 1–100 µg·mL^−1, ND = not detected in the tested concentration range
Method: as §1, §2

LoVo = experiment: SRB antiproliferative assay, LoVo; type: cell-based, human; details: Homo sapiens, LoVo, 48 h, 1–100 µg·mL^−1, ND = not detected in the tested concentration range
Method: as §1, §2

LoVo/DX = experiment: SRB antiproliferative assay, LoVo/DX; type: cell-based, human; details: Homo sapiens, LoVo/DX, 48 h, 1–100 µg·mL^−1, ND = not detected in the tested concentration range
Method: as §1, §2

[2] = SRB assay, normal fibroblasts COS7; type: cell-based, green monkey; details: green monkey, COS7 kidney fibroblasts (normal cell line), ND = not detected in the tested concentration range
Method: as §1, §2

[3] = system: Escherichia coli ATCC10536; experiment: Microbial growth curve screening, E. coli; type: cell-based; details: 0.1% (w/v), OD at 560 nm, control 1.61
Method: (§3) The antimicrobial screening tests were performed on two strains of bacteria: E. coli ATCC10536 and S. aureus DSM799, strain of yeast C. albicans DSM1386 and three strains of fungi: F. linii KB-F1, A. alternata CBS1526 and A. niger DSM1957. All microorganisms were obtained from the collection of the Faculty of Biotechnology and Food Microbiology, Wrocław University of Environmental and Life Sciences. The bacteria were cultured in nutrient broth (Biocorp, Warsaw, Poland), yeast and fungi in YM medium (3 g yeast extract, 3 g malt extract, 5 g bacteriological peptone and 10 g of glucose dissolved in 1 L of distilled water). The tests were carried out in 100-well microtiter plates. To each well 280 μL of culture medium, 10 μL of microorganism suspension and 10 μL of aminochalcone (1–18) dissolved in dimethyl sulfoxide (3% (w/v)) were added. The final concentration of the tested compound (1–18) was 0.1% (w/v). Each experiment were performed in 3 replications. The optical density of the cell suspension was measured on Bioscreen C (Automated Growth Curve Analysis System Lab System, Vantaa, Finland) at 560 nm automatically, at regular intervals of 30 min for 2–3 days. Cell cultures were maintained at 28 °C on a continuous shaker. To prepare the growth curves for each strain, the mean values of the absorbance in a function of time were used. The resulting antimicrobial activity was expressed as the increase of optical density (ΔOD) and was compared to that of the control cultures in the medium supplemented with dimethyl sulfoxide and also with reference substances: oxytetracycline (against bacteria), cycloheximide (against yeast) and nystatin (against fungi) (Sigma Aldrich).

[4] = system: Staphylococcus aureus DSM799; experiment: Microbial growth curve screening, S. aureus; type: cell-based; details: 0.1% (w/v); for ∆OD S. aureus: OD at 560 nm, control 1.67
Method: as §3

[5] = system: Alternaria alternata CBS1526; experiment: Microbial growth curve screening, A. alternata; type: cell-based; details: 0.1% (w/v); for ∆OD A. alternata: OD at 560 nm, control 1.86; for Lag-phase A. alternata: control 16.5 h
Method: as §3

Fusarium linii KB-F1 [6] = experiment: Microbial growth curve screening, F. linii; type: cell-based; details: 0.1% (w/v); for ∆OD F. linii: OD at 560 nm, control 1.95
Method: as §3

[7] = system: Aspergillus niger DSM1957; experiment: Microbial growth curve screening, A. niger; type: cell-based; details: 0.1% (w/v); for ∆OD A. niger: OD at 560 nm, control 2.14; for Lag-phase A. niger: control 11.0 h
Method: as §3

[8] = system: Escherichia coli ATCC10536; experiment: MIC evaluation (broth method), E. coli; type: cell-based; details: 48–72 h, read-out: Minimal inhibitory concentration E. coli
Method: (§4) Sterile 96-well microtiter plates (Sarstedt) with nutrient broth (for bacteria) (Biocorp) or YM medium (for yeast and filamentous fungi) were inoculated with a standardized cell suspension of bacteria and yeast or fungal spores of 10^5 cell·mL^−1, and supplemented with aminochalcones dissolved in DMSO. […] All analysis were conducted in triplicates. The plates were incubated at 30 °C (bacteria and yeast) or 25 °C (filamentous fungi) for 48–72 h. The results were measured with the Spark® Multimode Microplate Reader (Tecan, Männedorf, Switzerland) at a 560 nm wavelength. The minimal inhibitory concentration was defined as the lowest concentration of a tested compound that completely restricted the growth of the microorganism. In order to verify the obtained results, microbial cultures subjected to each concentration of aminochalcone were inoculated onto nutrient agar or YM plates and incubated as described above. The lack of growth on agar plate was a confirmation of the MIC of the tested compound. The resulting MIC values were compared with the reference substances: oxytetracycline (against bacteria), cycloheximide (against yeast) and nystatin (against fungi) (Sigma Aldrich).

Candida albicans DSM1386 [9] = experiment: MIC evaluation (broth method), C. albicans; type: cell-based; details: DSM1386, broth method, 48–72 h, read-out: Minimal inhibitory concentration C. albicans
Method: as §4

Fusarium linii KB-F1 [10] = experiment: MIC evaluation (broth method), F. linii; type: cell-based; details: for MIC: Fusarium, KBF1, 48–72 h, read-out: Minimal inhibitory concentration F. linii
Method: as §4

[11] = system: Staphylococcus aureus DSM799; experiment: MIC evaluation (broth method), S. aureus; type: cell-based; details: 48–72 h, read-out: Minimal inhibitory concentration S. aureus
Method: as §4

[12] = system: Aspergillus niger DSM1957; experiment: MIC evaluation (broth method), A. niger; type: cell-based
Method: as §4

Candida albicans DSM1386 [13] = experiment: Microbial growth curve screening, C. albicans; type: cell-based; details: 0.1% (w/v)
Method: as §3

[14] = system: Alternaria alternata CBS1526; experiment: MIC evaluation (broth method), A. alternata; type: cell-based; details: 48–72 h
Method: as §4

| SMILES | MIC80 Trichophyton rubrum (literature) (Trichophyton rubrum) [µg/mL] | IC50 [1] [µM] | IC50 (HT-29) [µg/mL] | IC50 (LS180) [µg/mL] | IC50 (LoVo) [µg/mL] | IC50 (LoVo/DX) [µg/mL] | IC50 at 48 h [2] [µg/mL] | ∆OD E. coli [3] | ∆OD S. aureus [4] | ∆OD A. alternata [5] | Lag-phase A. alternata [5] [h] | ∆OD F. linii (Fusarium linii KB-F1 [6]) | ∆OD A. niger [7] | Lag-phase A. niger [7] [h] | MIC [8] [µg/mL] | MIC (Fusarium linii KB-F1 [10]) [µg/mL] | melting point [°C] | further results |
| --- | --- | --- | --- | --- | --- | --- | --- | --- | --- | --- | --- | --- | --- | --- | --- | --- | --- | --- |
| Nc1ccccc1C(=O)/C=C/c1cccc([N+](=O)[O-])c1 [2′-amino-3-nitro-chalcone] | 0.5 (≈ 1.86 µM) |  |  |  |  |  |  |  |  |  |  |  |  |  |  |  |  |  |
| Cc1ccc(/C=C/C(=O)c2ccccc2N)cc1 [2′-amino-4-methylchalcone] |  | 38.2 |  |  |  |  |  |  |  |  |  |  |  |  |  |  |  |  |
| Nc1ccc(C(=O)/C=C/c2ccc(Cl)cc2)cc1 [4′-amino-4-chlorochalcone] |  | 31.4 |  |  |  |  |  |  |  |  |  |  |  |  |  |  |  |  |
| Nc1ccc(C(=O)/C=C/c2ccc(F)cc2)cc1 [4′-amino-4-fluorochalcone] |  | 34.4 |  |  |  |  |  |  |  |  |  |  |  |  |  |  |  |  |
| Nc1ccccc1C(=O)/C=C/c1ccc([N+](=O)[O-])cc1 [Compound 10, 2′-Amino-4-nitrochalcone] | 0.5 (≈ 1.86 µM) |  | 3.24 ± 0.27 (≈ 12.1 µM) | 2 ± 0.35 (≈ 7.46 µM) | 1.11 ± 0.07 (≈ 4.14 µM) | 0.96 ± 0.12 (≈ 3.58 µM) | 1.79 ± 0.14 (≈ 6.67 µM) | 0.0 | 0.15 | 0.20 | 0.5 | 0.0 | 0.79 | 23.0 | 0.25 (≈ 0.932 µM) | 0.5 (≈ 1.86 µM) | 114 to 117 | Lag-phase S. aureus ([4]; control 2.5 h): 11.5 h; MIC (Candida albicans DSM1386 [9]): 0.5 µg/mL (≈ 1.86 µM) |
| Nc1cccc(C(=O)/C=C/c2ccc([N+](=O)[O-])cc2)c1 [Compound 11, 3′-Amino-4-nitrochalcone] |  |  | 2.77 ± 0.49 (≈ 10.3 µM) | 2.89 ± 0.53 (≈ 10.8 µM) | 1.34 ± 0.1 (≈ 4.99 µM) | 1.36 ± 0.06 (≈ 5.07 µM) | 2.3 ± 0.45 (≈ 8.57 µM) | 0.0 | 0.0 | 0.55 | 42.0 | 0.0 | 0.83 | 39.5 | 1000 (≈ 3730 µM) | 0.5 (≈ 1.86 µM) | 166 to 168 | MIC [11]: 0.25 µg/mL (≈ 0.932 µM); MIC (Candida albicans DSM1386 [9]): 0.25 µg/mL (≈ 0.932 µM); MIC ([12]; Aspergillus niger, DSM1957, 48–72 h, read-out: Minimal inhibitory concentration A. niger): 1 µg/mL (≈ 3.73 µM) |
| Nc1ccc(C(=O)/C=C/c2ccc([N+](=O)[O-])cc2)cc1 [Compound 12, 4′-Amino-4-nitrochalcone] |  |  | 3.42 ± 0.54 (≈ 12.7 µM) | 4.64 ± 0.54 (≈ 17.3 µM) | 1.8 ± 0.1 (≈ 6.71 µM) | 2 ± 0.12 (≈ 7.46 µM) | 3.1 ± 0.5 (≈ 11.6 µM) | 0.0 | 0.0 | 0.87 | 13.0 | 0.0 |  |  | 0.25 (≈ 0.932 µM) | 1 (≈ 3.73 µM) | 205 to 207 | ∆OD C. albicans (Candida albicans DSM1386 [13]; OD at 560 nm, control 1.58): 0.13; Lag-phase C. albicans (Candida albicans DSM1386 [13]; control 3.0 h): 12.0 h; MIC [11]: 0.25 µg/mL (≈ 0.932 µM) |
| C[C@@H]1[C@H](O)[C@@H](C)/C=C/C=C/CC/C=C/C=C/C=C/C=C/C(O[C@H]2O[C@H](C)[C@@H](O)[C@H](N)[C@@H]2O)CC2O[C@](O)(CC(O)C(O)CCC(O)CC(O)CC(O)CC(=O)O[C@H]1C)CC(O)C2C(=O)O (some centres unmarked) [Nystatin, reference compound] |  |  |  |  |  |  |  |  |  | 0.0 |  | 0.13 | 0.74 | 4.5 |  |  |  | Lag-phase F. linii (Fusarium linii KB-F1 [6]; control 13.5 h): 10.0 h; Minimal inhibitory concentration A. alternata [14]: 1000 µg/mL (≈ 1080 µM); Minimal inhibitory concentration F. linii (Fusarium linii KB-F1 [10]; 48–72 h): 500 µg/mL (≈ 540 µM); Minimal inhibitory concentration A. niger ([12]; 48–72 h): 250 µg/mL (≈ 270 µM) |
| OC(Cn1cncn1)(Cn1cncn1)c1ccc(F)cc1F [fluconazole] | 0.25 (≈ 0.816 µM) |  |  |  |  |  |  |  |  |  |  |  |  |  |  |  |  |  |
